Consider 3 molecules from patent US5707833A, “Process of making cyclodextrin glucanotransferase with brevibacterium” (priority 1993, dated 1998).

Structures are written as SMILES. Like-named read-outs stand apart in the source and are kept apart here.

The test deals with cyclodextrin glucanotransferase (γ-CGTase, EC 2.4.1.19) of Brevibacterium sp. No. 9605. The test is classed as biochemical. The procedure:
(8) Activity measurement: In the measurements of the enzlanological properties described above, enzyme activity was measured by the following method. A 0.05 ml portion of an aqueous solution of the enzyme was added to 0.5 ml of a substrate solution (1.5% by weight soluble starch in 0.1M Atkins & Pantin buffer, pH 10.0) and incubated at 40° C. for 30 minutes. After adding 5 ml of 0.1N hydrochloric acid to terminate the reaction, a 0.5 ml portion of the reaction mixture was taken out and mixed with 5 ml of an iodine solution (0.005% iodine in 0.05% potassium iodide solution) to measure decrease in the absorbance at […]. One unit of the activity was defined as the amount of enzyme which decreases 1% of the absorbance at 660 nm within 1 minute under these conditions.

[1] abbreviates: enzyme treated with 1 mM inhibitor at 40° C. for 10 minutes in 0.1M H3BO3·KCl-NaOH buffer (pH 8.0), control 100, activity on soluble starch, iodine method.

For the molecule `O=C(O)CI` [MIA, monoiodoacetic acid], the “Residual Activity (%)” value (pH 8) is recorded as 82%.

With `CCN1C(=O)C=CC1=O` [NEM, N-ethylmaleimide], under setting [1], the “Residual Activity (%)” value stood at 84%.

With `O=C(O)c1cc[c]([Hg][Cl])cc1` [PCMB, p-chloromercuribenzoic acid], the “Residual Activity (%)” value under setting [1] is listed as 83%.
